The values below come from patent US20110020914A1, “METHODS FOR ENHANCING GROWTH OF ORGANISMS IN AN AQUEOUS GROWTH MEDIUM” (NOVUS INTERNATIONAL INC, priority 2009, published 2011).

Assay type in all cases: cell-based
Experiment [1] deals with Chlorella vulgaris. The experiment is described as follows: Effect of chelated micronutrients on lipid accumulation (Nile Red fluorescence) in Chlorella vulgaris. The method, then:
To assess the efficacy of chelated micronutrients on the lipid content of Chlorella vulgaris, a fresh-water green microalgae, the following experiment was conducted. Chlorella vulgaris microalgae colonies were cultured in algal culture media containing added BIOX-C, BIOX-Z, and BIOX-M as described in Example 3. Samples from each flask were taken after 9, 30, and 39 days of growth in the flasks and analyzed in triplicate to determine the lipid content of the microalgae cells. A fluorometric method was used determine cellular lipid accumulation. 4-mL culture samples were mixed with Nile Red (9-diethylamino-5H-benzophenoxazine-5-one) at a 100:1 volume ratio and allowed to stain for about seven minutes. Cytoplasmic lipids were then measured by the florescence intensity using a fluorometer (excitation 475 nm; emission 585 nm). The relative fluorescence for lipid content was obtained after subtraction of both the autofluorescence of algal cells and the self-fluorescence of the Nile Red dye from the uncorrected readings at 585 nm wavelengths.

Experiment [2] relates to Chlorella vulgaris. Put plainly: Effect of chelated micronutrients on protein content (Coomassie Blue G, 595 nm) of Chlorella vulgaris. As for the experimental part: To assess the efficacy of chelated micronutrients on the protein content of Chlorella vulgaris, a fresh-water green microalgae, the following experiment was conducted. Chlorella vulgaris microalgae colonies were cultured in algal culture media containing added BIOX-C, BIOX-Z, and BIOX-M as described in Example 3.
Samples from each flask were taken after 2, 7, 12, 15, 21, and 30 days of growth in the flasks and analyzed in triplicate to determine the protein content of the microalgae cells. The protein contents of the microalgal colonies were determined by using a spectrophotometer to measure microalgal cells in which the proteins were marked with a dye. 0.04-mL culture samples were gently mixed with 2 ml of Coomassie Blue G dye in a 4 mL plastic cuvette. Cytoplasmic proteins were then measured by measuring the absorbance of the dyed sample at a wavelength of 595 nm using a […].

The subject of experiment [3] is Chlorella vulgaris. Put plainly: Effect of chelated micronutrients on growth (cell density, spectrophotometer 450 nm) of Chlorella vulgaris. The following applies: up to 24 days, vs control. As for the experimental part: To assess the efficacy of chelated micronutrients on the growth of Chlorella vulgaris, a fresh-water green microalgae, the following experiment was conducted. Chlorella vulgaris microalgae were maintained in stock cultures as described in Example 1. The microalgae were inoculated at an initial concentration of about 10^4 cells/ml into 250 ml conical flasks containing 100 ml of an algal growth medium having a composition described in Table 3.
Three different chelated micronutrient compositions were added to the growth medium of the flasks at six different concentrations to each algal culture for final concentrations of 0 mg/ml (control), […], 10^−4 mg/ml, 10^−3 mg/ml and 10^−2 mg/ml. The metal micronutrient compositions tested were Cu-HMTBA (BIOX-C), Zn-HMTBA (BIOX-Z), and Mn-HMTBA (BIOX-M). For each concentration of a particular micronutrient composition, three duplicate flasks were tested.
The flasks containing the added compounds were cultured in a chamber in which the temperature was maintained at 21° C.-25° C. In addition, the chamber provided continuous uniform illumination with a quantum flux of 0.72 10-20 photon/m^2+/−20% in the spectral range of 400-700 nm (8000 flux). The contents of the flasks were shaken, stirred, or aerated during the experiment to facilitate the transfer of CO2 to the microalgae.
Samples from each flask were taken after 2, 7, 12, 15, 18, 21, and 24 days of growth in the flasks and analyzed in quadruplicate to determine the cell density of the microalgae. The cell density was determined using a spectrophotometer at a wavelength setting of 450 nm and using a filtered growth medium sample as a blank. The sample volume analyzed was 100 μL per well.

The next experiment has as its system Dunaliella tertiolecta. The experiment is described as follows: Effect of chelated zinc on growth (cell density, haemocytometer) of Dunaliella tertiolecta. The settings on record: cultured with 10^−6 to 10^−2 mg/ml in f/2 medium, 18 days, vs control. As for the experimental part:
To assess the efficacy of adding HMTBA-chelated zinc (BIOX-Z) to the growth medium on the growth of the microalgae Dunaliella tertiolecta, the following experiment was conducted. Dunaliella tertiolecta was maintained in stock cultures in 20 ml test tubes at a cell density of about 2.5-5.0×10^4 cells/ml as seed cultures and maintained on a seven-day transfer cycle. The microalgae were inoculated into 1 L Pyrex glass Erlenmeyer flasks containing 250 ml of f/2 growth medium (Guillard 1975).
BIOX-Z was dissolved in distilled water and added at six different concentrations to each algal culture for final concentrations of 0 mg/ml (control), 10^−6 mg/ml, 10^−5 mg/ml, 10^−4 mg/ml, 10^−3 mg/ml and 10^−2 mg/ml. Each of the six test groups included 3 individual flasks.
The D. tertiolecta cells were grown in the flasks at a temperature of about 20° C. for a total of 18 days. Light was supplied to the cultures on a cycle of 12 hours of light and 12 hours of dark, at an intensity of 133-299 uEin/sec/cm^2 using a fluorescent light bulb bank (2-F20T12 Westinghouse cool white, Westinghouse Electric Corp., USA). Five samples from each of the test groups were taken each day, and the cell density of each sample was determined using a haemocytometer.

In the next experiment the test system is Nitzchia sp. microalgae. Put plainly: Effect of chelated zinc on growth (cell density) of Nitzchia sp. microalgae. The following applies: 10^−3 mg/ml, 18 days, vs control. As for the experimental part: To assess the efficacy of HMTBA-chelated zinc (BIOX-Z) on the growth of microalgae from the genus Nitzchia, the following experiment was conducted. Microalgae from the genus Nitzchia was maintained in stock cultures as described in Example 1. The microalgae were inoculated into 1 L flasks and varying amounts of BIOX-Z were added to the flasks as described in Example 1. The Nitzchia cells were grown in the flasks as described in Example 1 for a total of 18 days. Samples were taken from the flasks each day to assess the cell density as described in Example 1.

[4] abbreviates: all concentrations, after 30 days of growth.
Setting [5] is: 0.000001-0.0001 mg/mL, after thirty days of growth.
The mark [6] stands for this setting: 0.001 mg/mL, thirty days of growth.
[7] abbreviates: all concentrations, through the entire period of growth.

SMILES strings stand for the structures.

As for `CSCCC(O)C(=O)[O-].CSCCC(O)C(=O)[O-].[Cu+2]` (stereo not shown) [BIOX-C, Cu-HMTBA], the “enhancement of microalgal lipid content compared with all compositions tested” value in the experiment with Chlorella vulgaris [1] (10^−2 mg/mL) is recorded as “largest enhancement”. Also, the “lipid content of Chlorella vulgaris cells” value is “higher lipid content than the control colony” in the experiment with Chlorella vulgaris [1] (10^−2 mg/mL, after 39 days of growth); “higher lipid content than the control colony” with Chlorella vulgaris [1] (10^−3 mg/mL, after 39 days of growth); “enhanced” with Chlorella vulgaris [1] (all concentrations, after 9 days of growth); “enhanced” with Chlorella vulgaris [1] (setting [4]). Besides, the “protein content relative to control” value in the experiment on Chlorella vulgaris [2] (setting [5]) is listed as 10-12 times the control protein content; in the experiment on Chlorella vulgaris [2] (setting [6]) it was “about 4.5 times the control protein content”; with Chlorella vulgaris [2] (10^−4 mg/mL, after thirty days of growth, largest enhancement of all compositions tested) it was “about 12.8 times the control protein content”. In addition, the “protein content of the microalgae cells” value in the experiment on Chlorella vulgaris [2] (0.01 mg/mL, vs control cells) is on record as “inhibited”. Moreover, the “protein content of Chlorella vulgaris cells” value with Chlorella vulgaris [2] (all concentrations except 0.01 mg/mL, at twelve days of growth or longer) is given as “enhanced”. The “growth of Chlorella vulgaris (cell density)” value (“growth of Chlorella vulgaris” below) in the experiment on Chlorella vulgaris [3] (10^−2 mg/mL) was “inhibited”; with Chlorella vulgaris [3] (10^−3 mg/mL), “no effect”; with Chlorella vulgaris [3] (10^−4 mg/mL) it was “enhanced”; in the experiment on Chlorella vulgaris [3] (10^−5 mg/mL), “enhanced”; in the experiment on Chlorella vulgaris [3] (10^−6 mg/mL), “enhanced”.

For `CSCCC(O)C(=O)[O-].CSCCC(O)C(=O)[O-].[Mn+2]` (stereo not shown) [BIOX-M, Mn-HMTBA], the “lipid content of Chlorella vulgaris colonies” value is reported as “enhanced to a lesser degree” in the experiment on Chlorella vulgaris [1] (10^−5 mg/mL, after 39 days); “enhanced to a lesser degree” in the experiment on Chlorella vulgaris [1] (10^−6 mg/mL, after 39 days); “enhanced” with Chlorella vulgaris [1] (concentrations of less than 10^−2 mg/mL, after nine days). Moreover, the “lipid content of Chlorella vulgaris cells” value in the experiment on Chlorella vulgaris [1] (setting [4]) is given as “enhanced”. Besides, the “protein content relative to control” value is on record as 10-12 times the control protein content with Chlorella vulgaris [2] (setting [5]); 7-8 times the control protein content in the experiment with Chlorella vulgaris [2] (setting [6]); 7-8 times the control protein content with Chlorella vulgaris [2] (0.01 mg/mL, thirty days of growth). The “protein content of Chlorella vulgaris colonies” value with Chlorella vulgaris [2] (all concentrations, after 21 days or more of growth) was “enhanced”. The “growth of Chlorella vulgaris” value is reported as “enhanced” in the experiment with Chlorella vulgaris [3] (10^−2 mg/mL); “inhibited” in the experiment with Chlorella vulgaris [3] (10^−3 mg/mL); “enhanced” in the experiment on Chlorella vulgaris [3] (10^−4 mg/mL); “enhanced” in the experiment with Chlorella vulgaris [3] (10^−5 mg/mL); “enhanced” in the experiment with Chlorella vulgaris [3] (10^−6 mg/mL).

Take `CSCCC(O)C(=O)[O-].CSCCC(O)C(=O)[O-].[Zn+2]` (stereo not shown) [BIOX-Z, Zn-HMTBA]: in the experiment on Chlorella vulgaris [1] (10^−3 mg/mL), the “lipid content of Chlorella vulgaris cells, concentration of greatest enhancement” value was “most enhanced”. Further, the “lipid content of Chlorella vulgaris cells” value in the experiment with Chlorella vulgaris [1] (setting [7]) is “enhanced”. Also, in the experiment with Dunaliella tertiolecta, the “concentration of D. tertiolecta cells” value is listed as “enhanced”. Further, the “protein content of Chlorella vulgaris cells, concentration of greatest enhancement” value in the experiment with Chlorella vulgaris [2] (10^−5 mg/mL) is “most enhanced”. Also, the “protein content relative to control” value in the experiment on Chlorella vulgaris [2] (10^−5 mg/mL, after 30 days of growth) is reported as “over twelve times”. Also, the “protein content of Chlorella vulgaris cells” value with Chlorella vulgaris [2] (setting [7]) is “enhanced”. In addition, the “growth of Chlorella vulgaris” value with Chlorella vulgaris [3] (10^−2 mg/mL) is “no effect”; in the experiment on Chlorella vulgaris [3] (10^−3 mg/mL) it was “enhanced”; in the experiment with Chlorella vulgaris [3] (10^−4 mg/mL), “enhanced”; in the experiment on Chlorella vulgaris [3] (10^−5 mg/mL), “enhanced”; in the experiment on Chlorella vulgaris [3] (10^−6 mg/mL), “enhanced”. Further, in the experiment on Nitzchia sp. microalgae, the “concentration of Nitzchia cells” value is “enhanced”.
